Data reported in US20150315188A1, “COMPOUNDS AND METHODS FOR TREATMENT OF HYPERTENSION” (MEDIVATION TECHNOLOGIES, INC., priority 2012, published 2015).
pIC50, pKi: −log10 of the molar value.

Assays:
[1] = target: T1, Human adrenergic α1B receptor (Homo sapiens, UniProt P35368); experiment: Radioligand binding, adrenergic α1B (Protocol Group B); parameters: purchased Milipore (Millipore); conditions: Protocol Group B; for Percentage inhibition of ligand binding, Adrenergic α1B (0.1 μM) / inhibition at 0.1 µM: 0.1 μM compound; for Percentage inhibition of ligand binding, Adrenergic α1B (0.3 μM) / inhibition at 0.3 µM: 0.3 μM compound; for pKi: estimated Ki; for inhibition at 0.3 µM: read-out: Percentage inhibition of ligand binding, Adrenergic α1B (0.3 μM); for inhibition at 0.1 µM: read-out: Percentage inhibition of ligand binding, Adrenergic α1B (0.1 μM)
T1 sequence (P35368 1-520): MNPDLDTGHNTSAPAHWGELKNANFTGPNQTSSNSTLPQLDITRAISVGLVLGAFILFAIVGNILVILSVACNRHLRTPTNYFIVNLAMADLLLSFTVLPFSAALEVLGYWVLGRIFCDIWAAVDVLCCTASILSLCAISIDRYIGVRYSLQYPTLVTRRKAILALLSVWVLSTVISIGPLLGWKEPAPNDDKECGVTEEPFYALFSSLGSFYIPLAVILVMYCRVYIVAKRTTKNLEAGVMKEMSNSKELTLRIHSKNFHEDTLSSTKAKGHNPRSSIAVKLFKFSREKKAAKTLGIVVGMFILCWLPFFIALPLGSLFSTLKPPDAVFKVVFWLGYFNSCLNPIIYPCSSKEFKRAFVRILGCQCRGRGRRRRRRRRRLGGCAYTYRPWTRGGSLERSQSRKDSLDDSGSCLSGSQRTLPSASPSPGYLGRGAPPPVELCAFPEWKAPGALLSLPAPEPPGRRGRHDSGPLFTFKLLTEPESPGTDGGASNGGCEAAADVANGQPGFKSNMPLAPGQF
Outline: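 Values are percent inhibition of specific [3H]prazosin (0.3 nM) binding or estimated Ki, from filtration counting. Human α1B recombinant membranes, Tris-HCl pH 7.4 buffer with MgCl2 and EDTA, 60 min at 25 °C, 1% DMSO vehicle; 10 μM prazosin defined nonspecific binding.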

[2] = target: T2, Human adrenergic α2A receptor (Homo sapiens, UniProt P08913); experiment: Radioligand binding, adrenergic α2A (Protocol Group B); parameters: purchased Milipore (Millipore); conditions: Protocol Group B; for Percentage inhibition of ligand binding, Adrenergic α2A (0.1 μM) / inhibition at 0.1 µM: 0.1 μM compound; for Percentage inhibition of ligand binding, Adrenergic α2A (0.3 μM) / inhibition at 0.3 µM: 0.3 μM compound; for pKi: estimated Ki; for inhibition at 0.3 µM: read-out: Percentage inhibition of ligand binding, Adrenergic α2A (0.3 μM); for inhibition at 0.1 µM: read-out: Percentage inhibition of ligand binding, Adrenergic α2A (0.1 μM)
T2 sequence (P08913 1-465): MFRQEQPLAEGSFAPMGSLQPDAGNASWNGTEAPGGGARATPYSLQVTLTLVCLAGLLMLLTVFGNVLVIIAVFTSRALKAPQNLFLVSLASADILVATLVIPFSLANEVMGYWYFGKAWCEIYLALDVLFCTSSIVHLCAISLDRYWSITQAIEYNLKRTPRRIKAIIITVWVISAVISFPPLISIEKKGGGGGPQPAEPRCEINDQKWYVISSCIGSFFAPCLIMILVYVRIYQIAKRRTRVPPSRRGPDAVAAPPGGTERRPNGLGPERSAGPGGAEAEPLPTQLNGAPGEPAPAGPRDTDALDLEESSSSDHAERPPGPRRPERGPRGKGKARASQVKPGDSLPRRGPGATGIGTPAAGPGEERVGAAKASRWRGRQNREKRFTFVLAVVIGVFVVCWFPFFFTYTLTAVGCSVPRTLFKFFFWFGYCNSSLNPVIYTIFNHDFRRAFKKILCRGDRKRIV
Outline: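 Compounds (1% DMSO vehicle, various concentrations) competed against 2 nM [^3H]MK-912 on recombinant receptor membranes for 60 min at 25° C, Tris-HCl pH 7.4 buffer with Mg2+, Ca2+, BSA. Bound radioligand filtered and counted; 10 μM rauwolscine set nonspecific binding. Values: percent inhibition of specific binding or estimated Ki.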

[3] = target: T3, Human adrenergic α2B receptor (Homo sapiens, UniProt P18089); experiment: Radioligand binding, adrenergic α2B (Protocol Group B); parameters: purchased Milipore (Millipore); conditions: Protocol Group B; for Percentage inhibition of ligand binding, Adrenergic α2B (10 nM) / inhibition at 0.01 µM: 10 nM compound; for Percentage inhibition of ligand binding, Adrenergic α2B (10 nM): 0.01 µM; for Percentage inhibition of ligand binding, Adrenergic α2B (30 nM) / inhibition at 0.03 µM: 30 nM compound; for pKi: estimated Ki, read-out: Ki α2B; for inhibition at 0.01 µM: read-out: Percentage inhibition of ligand binding, Adrenergic α2B (10 nM); for inhibition at 0.03 µM: read-out: Percentage inhibition of ligand binding, Adrenergic α2B (30 nM); for inhibition at 0.1 µM: read-out: Percentage inhibition of ligand binding, Adrenergic α2B (0.1 μM)
T3 sequence (P18089 1-450): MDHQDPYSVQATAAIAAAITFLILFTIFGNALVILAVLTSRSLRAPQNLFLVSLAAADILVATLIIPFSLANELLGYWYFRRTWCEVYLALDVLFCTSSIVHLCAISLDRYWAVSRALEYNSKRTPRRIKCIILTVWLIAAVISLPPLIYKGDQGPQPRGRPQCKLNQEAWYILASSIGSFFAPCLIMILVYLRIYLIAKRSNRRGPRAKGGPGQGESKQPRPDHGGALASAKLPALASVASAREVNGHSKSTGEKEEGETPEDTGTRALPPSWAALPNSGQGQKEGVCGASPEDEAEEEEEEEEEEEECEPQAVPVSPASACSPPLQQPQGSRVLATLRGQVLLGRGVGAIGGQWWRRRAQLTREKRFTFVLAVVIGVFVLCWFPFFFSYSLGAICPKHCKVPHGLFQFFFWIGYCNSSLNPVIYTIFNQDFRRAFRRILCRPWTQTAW
Outline: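 Compounds at various concentrations in 1% DMSO were tested on recombinant membranes in Tris-HCl pH 7.4 buffer containing MgCl2, CaCl2 and 0.2% BSA.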

[4] = target: T3, Human adrenergic α2B receptor; experiment: β-Arrestin GPCR functional assay, adrenergic α2B (Protocol B); assay type: cell-based; conditions: β-arrestin, antagonist vs nor-epinephrine EC80; read-out: IC50 Adrenergic α2B
Description: To evaluate the activity of compounds in β-Arrestin GPCR functional assays, recombinant CHO cell line (DiscoveRX), over expressed with human adrenergic α2B receptor were used. The experiment was done with kit of DiscoveRX as per recommended protocol of the supplier. Cells were harvested from culture flask using cell dissociation solution (CDS) and plated at a density of 12,000 cells/well in CP reagent (supplied with the kit) in a half area 96-well white polystyrene plate. After 24 h incubation at 37° C., compounds at various concentrations in 1% (final) DMSO were charged to the cells for 30 min at 37° C. Active nor-epinephrine (-NE) at its EC80 concentrations (50 nM) were then added to the cells and incubated for another 90 min at 37° C. Detection mix was prepared by mixing of Path Hunter cell assay buffer, Emerald II solution and Galactone star solution in a ratio of 19:5:1 and incubated with the cells for 60 min at RT in the dark. The reading was taken in Envision at luminescence mode. Biochemical assay results are presented as the percent Inhibition in Table B2a, or IC50 values in Table B2b.

| SMILES | Percentage inhibition of ligand binding, Adrenergic α1B (0.1 μM) [1] [%] | Percentage inhibition of ligand binding, Adrenergic α1B (0.3 μM) [1] [%] | pKi [1] | Percentage inhibition of ligand binding, Adrenergic α2A (0.1 μM) [2] [%] | Percentage inhibition of ligand binding, Adrenergic α2A (0.3 μM) [2] [%] | pKi [2] | Percentage inhibition of ligand binding, Adrenergic α2B (10 nM) [3] [%] | Percentage inhibition of ligand binding, Adrenergic α2B (30 nM) [3] [%] | Percentage inhibition of ligand binding, Adrenergic α2B (0.1 μM) ([3]; 0.1 μM compound) [%] | pKi [3] | pIC50 [4] | inhibition at 0.3 µM [1] [%] | inhibition at 0.3 µM [2] [%] | inhibition at 0.01 µM [3] [%] | inhibition at 0.03 µM [3] [%] | inhibition at 0.1 µM ([3]; 0.1 μM compound) [%] | inhibition at 0.1 µM [1] [%] | inhibition at 0.1 µM [2] [%] | Percentage inhibition of ligand binding, Adrenergic α2B (30 nM) ([3]; 0.03 µM) [%] |
| --- | --- | --- | --- | --- | --- | --- | --- | --- | --- | --- | --- | --- | --- | --- | --- | --- | --- | --- | --- |
| Cc1ccc2c(c1)c1c(n2CC(C)(O)c2cccnc2)CC2CCCN2C1 (single isomer, unassigned) [38b] | 15 | – | 6.75 | 16 | – | 6.54 | – | – | – | 8.15 | 6.63 | 33 | 42 | 38 | 72 | 90 | – | – | – |
| CC(O)(Cn1c2c(c3cc(Cl)cc(F)c31)CN1CCCC1C2)c1cccnc1 (single isomer, unassigned) [63c] | – | – | – | – | – | – | – | – | – | 7.91 | 6.16 | 14 | 36 | 42 | 71 | – | 8 | 8 | – |
| Cc1cc(F)cc2c3c(n(CC(C)(O)c4cccnc4)c12)CCN1CCCC31 (single isomer, unassigned) [75d] | 15 | 33 | – | 25 | 41 | – | 55 | – | – | 8.06 | 6.42 | – | – | – | – | – | – | – | 79 |
| CC(O)(Cn1c2c(c3cc(C(F)(F)F)ccc31)CN1CCCC1C2)c1cccnc1 (single isomer, unassigned) [85a] | – | – | – | – | – | – | – | – | – | 7.49 | 6.08 | 4 | -4 | 9 | 42 | – | -9 | -12 | – |
| CC(O)(Cn1c2c(c3cc(Cl)cc(F)c31)CN1CCCC1C2)c1ccncc1 (single isomer, unassigned) [86c] | – | – | – | – | – | – | – | – | – | 7.89 | 6.16 | 15 | 9 | 24 | 53 | – | -5 | -10 | – |
| Cc1ccc2c(c1F)c1c(n2CC(C)(O)c2cccnc2)CCN2CCCC12 (single isomer, unassigned) [87a] | 13 | 27 | – | 19 | 33 | – | 30 | – | – | 7.69 | 6.52 | – | – | – | – | – | – | – | 63 |
| Cc1ccc2c(c1F)c1c(n2CC(C)(O)c2cccnc2)CCN2CCCC12 (single isomer, unassigned) [87b] | 16 | 35 | – | 31 | 53 | – | 37 | – | – | 7.62 | 6.55 | – | – | – | – | – | – | – | 66 |

These reach a higher pKi [3]. Values come first.

| Percentage inhibition of ligand binding, Adrenergic α1B (0.1 μM) [1] [%] | Percentage inhibition of ligand binding, Adrenergic α1B (0.3 μM) [1] [%] | pKi [1] | Percentage inhibition of ligand binding, Adrenergic α2A (0.1 μM) [2] [%] | Percentage inhibition of ligand binding, Adrenergic α2A (0.3 μM) [2] [%] | pKi [2] | Percentage inhibition of ligand binding, Adrenergic α2B (10 nM) [3] [%] | Percentage inhibition of ligand binding, Adrenergic α2B (30 nM) [3] [%] | Percentage inhibition of ligand binding, Adrenergic α2B (0.1 μM) ([3]; 0.1 μM compound) [%] | pKi [3] | pIC50 [4] | inhibition at 0.3 µM [1] [%] | inhibition at 0.3 µM [2] [%] | inhibition at 0.01 µM [3] [%] | inhibition at 0.03 µM [3] [%] | inhibition at 0.1 µM ([3]; 0.1 μM compound) [%] | inhibition at 0.1 µM [1] [%] | inhibition at 0.1 µM [2] [%] | Percentage inhibition of ligand binding, Adrenergic α2B (30 nM) ([3]; 0.03 µM) [%] | SMILES |
| --- | --- | --- | --- | --- | --- | --- | --- | --- | --- | --- | --- | --- | --- | --- | --- | --- | --- | --- | --- |
| – | – | – | – | – | – | – | – | – | 8.27 | 6.50 | 15 | 41 | 51 | 77 | 92 | 4 | 2 | – | Cc1cc(F)c2c(c1)c1c(n2CC(C)(O)c2cccnc2)CC2CCCN2C1 (single isomer, unassigned) [61c] |
| – | – | – | – | – | – | – | – | – | 8.34 | 6.58 | 11 | 30 | 51 | 74 | – | 6 | 24 | – | Cc1cc(F)cc2c3c(n(CC(C)(O)c4cccnc4)c12)CC1CCCN1C3 (single isomer, unassigned) [76d] |
| 5 | 17 | 6.34 | 25 | 45 | 6.62 | 65 | 86 | 96 | 8.46 | 6.67 | – | – | – | – | – | – | – | – | Cc1ccc2c(c1)c1c(n2CC(OC2CCCC2)c2ccncc2)CCN(C)C1 (single isomer, unassigned) [35b] |
